Laboratory results taken from paper PMC10783051 (Microbiology Spectrum, 2023).

Test system: S. venezuelae supernatant (secreted enzymes)
Experiment: In vitro degradation of CLPs by S. venezuelae cell-free supernatant
Assay type: in vitro ADME, Streptomyces venezuelae ATCC 10712
Conditions: pure CLPs (100 µM) incubated 24 h at 30°C with 4% (vol/vol) Sv CFS (grown on ISP2, 0.22-µm filtered), shaking 180 rpm; UPLC-MS/MS with feature-based molecular networking
Experimental: S. venezuelae cultures were performed on ISP2 medium at 28°C (yeast extract 4 g/L, malt extract 10 g/L, glucose 4 g/L, agar 20 g/L; pH 7.3). On 12 × 12 cm Petri square plates, three stripes (1 × 12 cm) of spores were inoculated with a cotton swab [40 µL of spores suspension (10^7 spores/mL) each], spaced by 3 cm each. The plates were left for 7 days of incubation. Next, the agar media was recovered and placed in Falcon tubes at −20°C for 24 h. Then, the agar media were defrosted at room temperature and centrifuged (8,000 rpm for 20 min). Finally, the supernatant leaked from the agar was collected, filtered sterilized (0.22-µm pore size filters) and stored at −20°C until further use. The heat-treated Sv supernatant was generated by incubating an aliquot of the cell-free supernatant of Sv for 10 min at 98°C. The supernatant was then filtered (0.22-µm pore size filters) and stored at −20°C until further use.
[…] Then the solutions were incubated for 24 h at 30°C with continuous shaking (180 rpm). Next, the solution were centrifuged (1 min at 10,000 rpm), filtered (0.22-µm pore size filters), and analyzed by UPLC-MS.
The degradation assays of Pseudomonas CLPs were performed using CFS generated as described above. They were supplemented by 4% (vol/vol) of S. venezuelae CFS prepared as described previously. Next, the solutions were incubated for 24 h at 30°C with continuous shaking (180 rpm). Then, the solution were centrifuged (1 min at 10,000 rpm), filtered (0.22-µm pore size filters), and analyzed by UPLC-MS.
For the CLP degradation kinetic experiments, surfactin, iturin, and fengycin solutions supplemented with S. venezuelae supernatant were prepared following the same protocol. Twenty microliters of solution was sampled at each time point and directly mixed with 80 µL of acetonitrile to stop enzymatic degradation. Finally, they were stored at −20°C until analysis by UPLC-MS.
All UPLC-MS analyses were performed using an Agilent 1290 Infinity II coupled with a diode array detector and a mass detector (Jet Stream ESI-Q-TOF 6530) in positive mode with the parameters set up as follows: capillary voltage of 3.5 kV, nebulizer pressure of 35 lb/in^2, drying gas of 8 L/min, drying gas temperature of 300°C, flow rate of sheath gas of 11 L/min, sheath gas temperature of 350°C, fragmentor voltage of 175 V, skimmer voltage of 65 V, and octopole radiofrequency of 750 V. Accurate mass spectra were recorded in the m/z range of 300–1,700. For untargeted MS/MS, we used the same MS1 parameters as described. We added MS2 untargeted acquisition mode with the parameters as follows: MS/MS range 50–1,700 m/z; MS/MS scan rate 3 spectra/s; isolation width MS/MS medium (approx. 4 AMU), Decision Engine Native; fixed collision energies of 25 and 40 V for surfactin, 50 V for iturin, and 60 V for fengycin experiments; precursor selection: three for the surfactin experiment, four for the iturin and fengycin experiments, threshold 1,500 (Abs), isotope model common, active exclusion after two spectra and release after 0.5 min, sorting the precursors by charge state then abundance (charge state preference 1). For targeted MS/MS, we used the same MS1 parameters MS/MS range of 50–1,700 m/z or 50–3,200 (when required for Pseudomonas CLPs with mass >1,700 Da), MS/MS scan rate 3 spectra/s, isolation width MS/MS narrow (approx. 1.3 amu), and fixed collision energies 20, 40, and 60V. In all experiments, a C18 Acquity UPLC ethylene bridged hybrid column (2.1 mm × 50 mm × 1.7 µm; Waters Corporation, Milford, MA, USA) was used at a flow rate of 0.6 mL/min and a temperature of 40°C. The injection volume was 20 µL, and the diode array detector scanned a wavelength spectrum between 190 and 600 nm. Unless otherwise mentioned, a gradient of acidified water (0.1% formic acid) (solvent A) and of acidified acetonitrile (0.1% formic acid) (solvent B) was used as mobile phase with a constant flow rate of 0.6 mL/min, starting at 10% B and rising to 100% B in 20 min. […]

## iturin
  degradation of pure Bacillus CLPs by Sv CFS: degrades
